Data: the supplement of paper PMC13380429

Assays:
A549-ACE2 [1] = assay: phospholipidosis EC50; higher = less potent phospholipidosis inducer
Caco-2 [2] = assay: relative viability EC50 (midpoint between 100% and the lowest measured viability); higher = less toxic; details: 72 h
[3] = test system: A549-ACE2 infected with SARS-CoV-2; assay: SARS-CoV-2 infection rate relative to DMSO; higher = more infection; details: 24 h
[4] = test system: A549-ACE2 infected with SARS-CoV-2; assay: cell count relative to DMSO; higher = less toxic; details: 24 h
HepG2 [5] = assay: cell viability relative to DMSO; higher = less toxic; details: 72 h
Calu-3 [6] = assay: as above; details: 72 h
Caco-2 [7] = assay: as above; details: 72 h
U2OS [8] = assay: as above; details: 72 h
Vero E6 [9] = assay: as above; details: 72 h
A549-ACE2 [10] = assay: drug-induced phospholipidosis relative to tamoxifen; higher = more phospholipidosis
HepG2 [11] = assay: drug sensitivity score (DSS) for viability; higher = more toxic; extreme values may be limits of the assay; details: 72 h
Calu-3 [12] = assay: as above; details: 72 h
Caco-2 [13] = assay: as above; details: 72 h
U2OS [14] = assay: as above; details: 72 h
Vero E6 [15] = assay: as above; details: 72 h
[16] = test system: A549-ACE2 infected with SARS-CoV-2; assay: morphology score (similarity to uninfected cells); higher = more like uninfected cells; details: 24 h
HepG2 [17] = assay: relative viability EC50 (midpoint between 100% and the lowest measured viability); higher = less toxic; details: 72 h
Calu-3 [18] = assay: as above; details: 72 h
U2OS [19] = assay: as above; details: 72 h
Vero E6 [20] = assay: as above; details: 72 h

CN1C2CCC1CC(OC(c1ccccc1)c1ccc(Cl)cc1)C2 (stereo not drawn) [3-CPMT]
Details	SARS-CoV-2 infection rate [%]	cell count [%]	cell viability [%]	morphology score	phospholipidosis EC50 [µM]
A549-ACE2 [1], 24 h	–	–	–	–	3.84
A549-ACE2 [1], 48 h	–	–	–	–	4.5
A549-ACE2 [1], 72 h	–	–	–	–	4.56
Caco-2 [7], 1 nM	–	–	94.2	–	–
Caco-2 [7], 10 nM	–	–	89.7	–	–
Caco-2 [7], 100 nM	–	–	91.5	–	–
Caco-2 [7], 1000 nM	–	–	94.9	–	–
Caco-2 [7], 10000 nM	–	–	76.4	–	–
Calu-3 [6], 1 nM	–	–	107	–	–
Calu-3 [6], 10 nM	–	–	109	–	–
Calu-3 [6], 100 nM	–	–	106	–	–
Calu-3 [6], 1000 nM	–	–	91.3	–	–
Calu-3 [6], 10000 nM	–	–	55.1	–	–
HepG2 [5], 1 nM	–	–	99.3	–	–
HepG2 [5], 10 nM	–	–	110	–	–
HepG2 [5], 100 nM	–	–	97.6	–	–
HepG2 [5], 1000 nM	–	–	98.6	–	–
HepG2 [5], 10000 nM	–	–	59.5	–	–
U2OS [8], 1 nM	–	–	104	–	–
U2OS [8], 10 nM	–	–	96.9	–	–
U2OS [8], 100 nM	–	–	100	–	–
U2OS [8], 1000 nM	–	–	97.1	–	–
U2OS [8], 10000 nM	–	–	72.6	–	–
Vero E6 [9], 1 nM	–	–	93.5	–	–
Vero E6 [9], 10 nM	–	–	97.3	–	–
Vero E6 [9], 100 nM	–	–	94.5	–	–
Vero E6 [9], 1000 nM	–	–	96.6	–	–
Vero E6 [9], 10000 nM	–	–	70.6	–	–
[3], 0.1 µM	108	–	–	–	–
[3], 0.3 µM	96	–	–	–	–
[3], 1 µM	74	–	–	–	–
[3], 3 µM	32	–	–	–	–
[4], 0.1 µM	–	105	–	–	–
[4], 0.3 µM	–	99	–	–	–
[4], 1 µM	–	116	–	–	–
[4], 3 µM	–	123	–	–	–
[16], 0.1 µM	–	–	–	-0.03	–
[16], 0.3 µM	–	–	–	-0.04	–
[16], 1 µM	–	–	–	0.58	–
[16], 3 µM	–	–	–	0.88	–

Details	drug sensitivity score	relative viability EC50 [µM]
Caco-2 [2]	–	> 10
Caco-2 [13]	1.3	–
Calu-3 [12]	3.7	–
HepG2 [11]	2.2	–
U2OS [14]	1.6	–
Vero E6 [15]	1.8	–

drug-induced phospholipidosis [%], A549-ACE2 [10]
Details	0.3 µM	0.833333 µM	3.33333 µM	6.66667 µM	10 µM	30 µM
24 h	4.71	3.97	55.2	83.2	94.4	114
48 h	7.06	3.72	51.9	88.1	103	126
72 h	7.88	7.28	40	85.2	102	–

Cc1ccc2cc(-c3c(C)ccc(C(=O)c4c(-c5ccccc5)n(C)n(-c5ccccc5)c4=O)c3N)ccc2n1 [AMG-PERK-44]
Details	drug sensitivity score	relative viability EC50 [µM]
Caco-2 [2]	–	> 10
Caco-2 [13]	0	–
Calu-3 [12]	0	–
Calu-3 [18]	–	> 10
HepG2 [11]	0.2	–
HepG2 [17]	–	> 10
U2OS [14]	0	–
U2OS [19]	–	> 10
Vero E6 [15]	0	–
Vero E6 [20]	–	> 10

Details	SARS-CoV-2 infection rate, [3] [%]	cell count, [4] [%]	cell viability, Caco-2 [7] [%]	cell viability, Calu-3 [6] [%]	cell viability, HepG2 [5] [%]	cell viability, U2OS [8] [%]	cell viability, Vero E6 [9] [%]	morphology score, [16]
1 nM	–	–	92.6	105	96.5	98.4	85.8	–
10 nM	–	–	90.6	102	98.4	96.7	88.9	–
100 nM	–	–	75.3	100	93	98.1	92.9	–
0.3 µM	107	96	–	–	–	–	–	-0.16
1000 nM	–	–	68.5	95.7	91.3	102	98.7	–
3 µM	86	101	–	–	–	–	–	0.09
10 µM	91	103	–	–	–	–	–	0.05
10000 nM	–	–	97.1	111	86.7	101	116	–
30 µM	51	103	–	–	–	–	–	0.57

drug-induced phospholipidosis [%], A549-ACE2 [10]
Details	0.3 µM	0.833333 µM	3.33333 µM	6.66667 µM	10 µM	30 µM
24 h	0.1	-2.94	-0.56	4.07	7.05	23.2
48 h	0.46	-0.23	5.6	10.1	14.1	24.3
72 h	0.916	0.798	10	13.7	17.9	33.4

N#C/C(=C\c1ccc(O)c(O)c1)C(N)=O [tyrphostin-AG-99]
Details	drug sensitivity score	relative viability EC50 [µM]
Caco-2 [2]	–	> 10
Caco-2 [13]	0	–
Calu-3 [12]	0	–
Calu-3 [18]	–	> 10
HepG2 [11]	0	–
HepG2 [17]	–	> 10
U2OS [14]	0	–
U2OS [19]	–	> 10
Vero E6 [15]	0	–
Vero E6 [20]	–	> 10

cell viability [%]
Details	Caco-2 [7]	Calu-3 [6]	HepG2 [5]	U2OS [8]	Vero E6 [9]
1 nM	96.9	102	96.3	100	94
10 nM	92.5	97.2	112	94.7	98.6
100 nM	96.4	103	104	102	98.3
1000 nM	92.2	111	110	105	93.4
10000 nM	103	112	102	100	107

CCCOc1ccc(C(=O)OCCN(CC)CC)cc1N [proxymetacaine]
Details	drug sensitivity score	relative viability EC50 [µM]
Caco-2 [2]	–	> 10
Caco-2 [13]	0	–
Calu-3 [12]	0	–
Calu-3 [18]	–	> 10
HepG2 [11]	0	–
HepG2 [17]	–	> 10
U2OS [14]	0	–
U2OS [19]	–	> 10
Vero E6 [15]	0	–
Vero E6 [20]	–	> 10

cell viability [%]
Details	Caco-2 [7]	Calu-3 [6]	HepG2 [5]	U2OS [8]	Vero E6 [9]
1 nM	92.8	102	88.5	99.9	97.2
10 nM	87	96.8	102	97	95.9
100 nM	102	94.2	99.1	101	91.9
1000 nM	90	101	113	97.2	97.1
10000 nM	104	102	97.9	102	107

CCCc1c2oc(C(=O)O)cc(=O)c2cc2c(=O)cc(C(=O)O)n(CC)c12 [nedocromil]
Details	drug sensitivity score	relative viability EC50 [µM]
Caco-2 [2]	–	> 10
Caco-2 [13]	0	–
Calu-3 [12]	0	–
Calu-3 [18]	–	> 10
HepG2 [11]	0	–
HepG2 [17]	–	> 10
U2OS [14]	0	–
U2OS [19]	–	> 10
Vero E6 [15]	0	–
Vero E6 [20]	–	> 10

cell viability [%]
Details	Caco-2 [7]	Calu-3 [6]	HepG2 [5]	U2OS [8]	Vero E6 [9]
1 nM	98.3	102	113	102	121
10 nM	99.8	99.4	86.5	106	100
100 nM	97.9	103	91.5	99.4	115
1000 nM	105	107	90.6	104	95.7
10000 nM	100	98.4	100	97.1	109
